According to patent publication US7745390B2, “Antimicrobial peptides” (priority 2005, dated 2010):
Square brackets hold non-standard residues; d marks the D form. Ends that are not written are not given here. Peptide text beside a SMILES is read from it.

Columns and labels:
bacteria = experiment: Activity in DMEM and RPMI media (lysis of bacteria); format: cell-based; details: medium not stated
Description: The CFU assay is the “gold standard” for evaluating antibiotics. Briefly, bacteria are grown overnight in rich medium, such as LB, and then diluted and grown in log phase for 2-4 hours. Cultures are set up as above, with the initial culture media being 10 mM phosphate buffer/0.03% LB; DMEM or RPMI; or DMEM or RPMI plus 10% serum (fetal calf, human, or mouse). After various periods of time, but generally 3 hours or less, aliquots are removed, diluted in LB at various dilutions, and plated on LB agar plates. Plates are incubated overnight at 37° C. and counted on an automatic colony counter.
In the column “Active in DMEM”, a blank means no activity. MAP stands for multiple antigenic peptide, where a number of identical peptide chains are synthesized and joined to a common core (like a dendrimer).
The peptides listed in Table 2 were tested in DMEM and RPMI, media that approximate blood and tissue conditions in vivo and those that were active under these conditions are listed in the last column (active in DMEM). […] No peptides that were all L-isomer peptides lysed bacteria in DMEM supplemented with serum.
The hydrophobic moment is a measure of amphipathicity and indicates how well the hydrophobic residues fall on one side of the helix while the hydrophilic residues fall on the opposite side is shown in column 7. This was determined using the Membrane Explorer Program (http://blanco.biomol.uci.edu/mpex/). A high number indicates a high hydrophobic moment. Column 8 again (like Table 2) indicates which of these peptides is active in DMEM.

E. coli DH5a = format: cell-based; details: DH5a, pH 7.2
Outline: (§1)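 Single-well growth assay: peptide + bacteria (~5×10^6 CFU/ml) in 10 mM phosphate pH 7.2/0.03% LB, 3 h 37 °C; add LB, overnight; OD600. MIC = lowest conc., no growth; IC50 = 50% growth vs medium.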

B. cereus = format: cell-based; details: pH 7.2
Outline: as §1

Salmonella = format: cell-based, S. typhimurium; details: pH 7.2
Outline: as §1

Row | Compound | antimicrobial / antibacterial activity (bacteria) | E. coli DH5a MIC (E. coli DH5a) [µM] | IC50 (E. coli DH5a) [nM] | B. cereus MIC (B. cereus) [µM] | IC50 (B. cereus) [nM] | IC50 (Salmonella) [nM] | Salmonella MIC (Salmonella) [µM]
1 | CSCC[C@@H](NC(=O)[C@H]1CCCN1C(=O)[C@@H](CCCCN)NC(=O)[C@@H](CCCCN)NC(=O)[C@@H](CO)NC(=O)[C@H](NC(=O)[C@@H](CCCCN)NC(=O)[C@H](N)CCCCN)C(C)C)C(=O)N[C@H](CCCCN)C(=O)N[C@H](CCCCN)C(=O)N[C@H](Cc1ccc(O)cc1)C(=O)N[C@H](CCCCN)C(=O)N[C@H](CO)C(=O)N[C@H](CCCCN)C(=O)N[C@H](CCCCN)C(=O)N1CCC[C@@H]1C(=O)N[C@H](CCCCN)C(=O)N[C@H](CCCCN)C(=O)N[C@H](CC(C)C)C(=O)N[C@@H](C(=O)O)C(C)C [Peptide G12.28, kkvskkpmkkykskkpkklv] (H-[dK][dK][dV][dS][dK][dK][dP][dM][dK][dK][dY][dK][dS][dK][dK][dP][dK][dK][dL][dV]-OH; N-terminus and C-terminus assumed) | inactive peptide |  |  |  |  |  | 
2 | QRSVSRAATRVSRTGRSRWRDVSRNFMRR [Peptide G8.2] |  | 1.4 | 580 | 1.39 | 510 | 550 | 1.4
3 | QRSVSRAATRVSRTGRSRWRDVSRRFMRR [Peptide G8.4] |  | 0.7 | 450 | 0.7 | 450 | 210 | 0.35
4 | QRSVSRAPTRVSRTGRSRW [Peptide G13.8, QRSVSRAPTRVSRTGRSRW] |  | 5.7 | 3300 | >10 | 7700 | > 10000 | >10
5 | QRSVSRPPTRVSRPPRSRW [Peptide G13.13, QRSVSRPPTRVSRPPRSRW] |  | 5.1 | 380 | >10 | > 10000 | 1400 | >10
6 | QRSVSRPPTRVSRTGRARW [Peptide G13.12, QRSVSRPPTRVSRTGRARW] |  | 5.65 | 1750 | >10 | > 10000 | > 10000 | >10
7 | QRSVSRPPTRVSRTGRSRW [Peptide G13.11, QRSVSRPPTRVSRTGRSRW] |  | 5.75 | 2720 | >10 | > 10000 | > 10000 | >10
8 | RDVARRFMRRQSRVISRLV [Peptide G12.15, RDVARRFMRRQSRVISRLV] |  | 1.4 | 890 | 2.8 | 1750 | 420 | 0.69
9 | RDVCRNFMRR [Peptide G11, RDVCRNFMRR, reference compound] |  | >10 | > 10000 | >10 | > 10000 | > 10000 | >10
10 | RDVSRRFMRRGRDVSRRFMRR [Peptide G11.38] |  | 0.7 | 420 | 1.4 | 890 | 820 | 1.35
11 | RDVSRRFMRRQSRVIQGLV [Peptide G12.3, RDVSRRFMRRQSRVIQGLV] |  | 5.7 | 3510 | >10 | 7700 | 3500 | 5.5
12 | RDVSRRFMRRRDVSRRFMRR [Peptide G11.39] |  | 0.7 | 220 | 0.7 | 450 | 1700 | 2.75
13 | RRDSRRFMRR [Peptide G11.11, RRDSRRFMRR] |  | >10 | 7450 | >10 | > 10000 | > 10000 | >10
14 | RRLLRRLLRR [Peptide G11.20, RRLLRRLLRR] |  | >10 | 7700 | >10 | > 10000 | 7690 | >10
15 | RRLLRRLLRRGSRRLLRRLLRR [Peptide G11.23] |  | 0.7 | 450 | 0.7 | 410 | 450 | 0.71
16 | RRPSRRFPRR [Peptide G11.37, RRPSRRFPRR] |  | 2.4 | 450 | >10 | > 10000 | 1680 | 2.9

Row | Compound | antimicrobial / antibacterial activity (bacteria) | E. coli DH5a MIC (E. coli DH5a) [µM] | IC50 (E. coli DH5a) [nM] | B. cereus MIC (B. cereus) [µM] | IC50 (B. cereus) [nM] | IC50 (Salmonella) [nM] | Salmonella MIC (Salmonella) [µM]
17 | RRVSRRFMRR [Peptide G11.3, RRVSRRFMRR] |  | 2.85 | 1760 | >10 | 7700 | > 10000 | >10
18 | RRVSRRFMRR [Peptide G11.44, RRVSRRFMRR] |  | 0.38 | 210 | >10 | 7700 | 3150 | 5.75
19 | RRVSRRFMRRGSRRVSRRFMRR [Peptide G11.7] |  | 0.35 | 210 | 0.35 | 210 | 210 | 0.35
20 | RRVSRRFMRRGSRRVSRRFMRRGSRRVSRRFMRR [Peptide G11.10] |  | 0.35 | 210 | 0.35 | 210 | 210 | 0.35
21 | RRVSRRFMRRSGSGSGSGQQMVQQSGQQFS [Peptide G11.40] |  | >10 | 3280 | >10 | > 10000 | > 10000 | >10
22 | RRVSRRFMRRSRWARKGSGQMVQQSSQQFQ [Peptide G11.41] |  | 3.5 | 960 | 1.38 | 890 | 3250 | 5.6
23 | RRVSRRFMRRYQSRVIQGLV [Peptide G12.6] |  | 1.45 | 890 | 0.7 | 420 | 900 | 1.45
24 | RRVSRRFMRRYQSRVPQGLV [Peptide G12.10] |  | 0.7 | 450 | 1.4 | 890 | 850 | 1.4
25 | RRVSRRFMRRYRSRRIRRLV [Peptide G12.8] |  | 0.7 | 450 | 0.71 | 450 | 410 | 0.65
26 | RRVSRRFMRRYRSRVIRGLV [Peptide G12.7] |  | 0.71 | 250 | 0.35 | 210 | 220 | 0.35
27 | RRVVRRFMRR [Peptide G11.16, RRVVRRFMRR] |  | 1.4 | 800 | >10 | 7700 | 3450 | 5.6
28 | RRVVRRLLRR [Peptide G11.19, RRVVRRLLRR] |  | >10 | 7450 | 6.65 | 3410 | 7690 | >10
29 | SDVAKKFMKKQSKVIKKLV [Peptide G12.23, SDVAKKFMKKQSKVIKKLV] |  | 3 | 1000 | >10 | 7700 | > 10000 | >10
30 | SDVARRFMRRQSRVIRRLV [Peptide G12.22, SDVARRFMRRQSRVIRRLV] |  | 1.38 | 870 | 5.7 | 3500 | 890 | 1.39
31 | VHKRRVSRRFMRRLGH [Peptide G11.42, VHKRRVSRRFMRRLGH] |  | 0.35 | 210 | 0.4 | 110 | 1350 | 2.8
32 | WRDVSRNFMRRGRSRGWRDVSRNFMRR [Peptide G11.36] |  | 0.7 | 450 | 0.7 | 410 | 890 | 1.38
